Laboratory results from patent US20120065257A1, “USE OF BENZO-FUSED HETEROCYLE SULFAMIDE DERIVATIVES FOR THE TREATMENT OF MIGRAINE” (priority 2006, published 2012).
Values belong to the molecule of their own block, whether it stands above or below them.

Key:
[1] = tested on: KCl-induced cortical spreading depression; experiment: KCl-induced cortical spreading depression (CSD) assay as model of migraine; type: in vivo, Sprague-Dawley rats; details: 100 mg/kg/day p.o. for 35 days
Experimental: Cortical spreading depression (CSD) has been implicated in migraine and as a headache trigger, and can be evoked in experimental animals by electrical or chemical stimulation (Kunkler & Kraig, 2003; Lauritzen et al., 1982; Moskowitz, 1984).
Adult male Sprague-Dawley rats (250-600 g) were divided into two treatment groups: vehicle (0.5% methylcellulose; n=13) and Compound #8 (100 mg/kg/day, p.o.; n=7). Results were compared to historical positive controls with valproic acid at 200 mg/kg/day, i.p.
Vehicle or Compound #8 was administered orally once a day for 35 days. On the last day of treatment, rats continued to receive food and water ad libitum, and were given their daily oral dose of vehicle or Compound #8 approximately 1.5 h prior to CSD testing. Rats were anesthetized using isoflurane and intubated via a tracheotomy for mechanical ventilation. Body temperature, blood pressure and heart rate were monitored throughout the procedure to ensure homeostasis. […] The steady (DC) potential and electrocorticogram (EcoG) were recorded with glass micropipettes filled with 200 mM NaCl, […] below the dural surface. […] The number of KCL-induced CSDs was counted for 2 hours. Propagation speed was calculated from the distance (mm) between the recording electrodes 1 and 2, divided by the latency (min) between the CSDs recorded at these sites. […]

[2] = Body weight and systemic physiology monitoring during CSD testing; type: in vivo, Sprague-Dawley rats; details: 100 mg/kg/day p.o. for 35 days
Experimental: Vehicle or Compound #8 was administered orally once a day for 35 days. On the last day of treatment, rats continued to receive food and water ad libitum, and were given their daily oral dose of vehicle or Compound #8 approximately 1.5 h prior to CSD testing. Rats were anesthetized using isoflurane and intubated via a tracheotomy for mechanical ventilation. Body temperature, blood pressure and heart rate were monitored throughout the procedure to ensure homeostasis. Rats were placed in a stereotaxic frame and three burr holes were drilled under saline cooling over the right hemisphere at the following coordinates (mm from bregma): (1) posterior 4.5, lateral 2.0 (occipital cortex): KCL application; (2) posterior 0.5, lateral 2.0 (parietal cortex): recording site 1; (3) anterior 2, lateral 2 (frontal cortex): recording site 2. Dura overlying the occipital cortex was gently removed. The steady (DC) potential and electrocorticogram (EcoG) were recorded with glass micropipettes filled with 200 mM NaCl, […] below the dural surface. An Ag/AgCl reference electrode was placed subcutaneously in the neck. Following surgical preparation, the cortex was allowed to recover for 30 minutes under saline irrigation. Cortical spreading depressions were initiated by placing a cotton ball soaked with 1M KCl on the pial surface. The number of KCL-induced CSDs was counted for 2 hours. Propagation speed was calculated from the distance (mm) between the recording electrodes 1 and 2, divided by the latency (min) between the CSDs recorded at these sites.

[3] = tested on: KCl-induced cortical spreading depression; details: historical positive control, 200 mg/kg/day i.p. for 4 weeks; saline 18; p<0.05; cited from earlier work

melting point: 76 to 78 °C
SMILES: CN(C)S(=O)(=O)NCC1COc2ccccc2O1 (racemic) [Compound #6, N-(2,3-Dihydro-benzo[1,4]dioxin-2-ylmethyl)-N′,N′ dimethylsulfamide]

melting point: 97 to 98 °C
SMILES: CN(CC1COc2ccccc2O1)S(N)(=O)=O (racemic) [Compound #7, N-(2,3-Dihydro-benzo[1,4]dioxin-2-ylmethyl)-N-methylsulfamide]

SMILES: NS(=O)(=O)NC[C@H]1COc2cc(Cl)ccc2O1 [Compound #8, (2S)-(−)-N-(6-Chloro-2,3-dihydro-benzo[1,4]dioxin-2-ylmethyl)-sulfamide]
CSDs (2 h) ≧ 5 mV (number of KCl-induced cortical spreading depressions) ([1]; 1M KCl topical, counted for 2 hours, vehicle 16 ± 3, p=0.12, not significant): 14±3
Propagation Speed ([1]; vehicle 3.2 ± 1, p=0.06): 2.7±0.4 mm/min
Physiological monitoring, including arterial pH, pCO2, pO2 and blood pressure, versus vehicle [2]: did not differ between the groups
Systemic Physiology: pH (arterial) ([2]; vehicle 7.44 ± 0): 7.42 ± 0.03
Systemic Physiology: pCO2 ([2]; vehicle 38 ± 3, in mmHg (unit assumed)): 39 ± 3
Systemic Physiology: BP ([2]; vehicle 105 ± 14, in mmHg (unit assumed)): 107 ± 18
Systemic Physiology: pO2 ([2]; vehicle 162 ± 9, in mmHg (unit assumed)): 157 ± 18
Body weight ([2]; vehicle 401 ± 40): 418 ± 31 g

melting point: 100 to 101 °C
SMILES: NS(=O)(=O)NCC1CCc2ccccc2O1 (centres unmarked) [Compound #10, Chroman-2-ylmethylsulfamide]

melting point: 101 to 103 °C
SMILES: NS(=O)(=O)NCCC1COc2ccccc2O1 (centres unmarked) [Compound #16, 2-(2,3-Dihydro-benzo[1,4]dioxin-2-yl)-ethylsulfamide]

melting point: 119 to 121 °C
SMILES: NS(=O)(=O)NC[C@H]1COc2cc(Cl)c(Cl)cc2O1 [Compound #29, (2S)-(−)-N-(6,7 Dichloro-2,3-dihydro-benzo[1,4]dioxin-2-ylmethyl)-sulfamide]

SMILES: CCCC(CCC)C(=O)O [valproate, valproic acid]
number of cortical spreading depressions [3]: 14
